This is an account of results in PubChem BioAssay AID248 (DTP/NCI, 2004).

In this assay the test system is L1210 leukemia ip in BDF1 mice, survival T/C. The assay is described as follows: NCI In Vivo Anticancer Drug Screen. Data for tumor model L1210 Leukemia (intraperitoneal) in B6D2F1 (BDF1) mice. Particulars: endpoint: mean survival time, higher = longer survival. Summed up:
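Value reflects the ratio of survival in compound-treated mice to survival in vehicle-treated controls, with both groups carrying the same transplanted tumor.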

Where [1] appears, read: dose: 100.0 mg/kg/injection, schedule: Q01DX009 (ip), vehicle: saline with Tween-80.
The mark [2] stands for this setting: dose: 100.0 mg/kg/injection, schedule: Q04DX003 (ip), vehicle: saline with Tween-80.
Where [3] appears, read: dose: 200.0 mg/kg/injection, schedule: Q01DX009 (ip), vehicle: saline with Tween-80.
The mark [4] stands for this setting: dose: 200.0 mg/kg/injection, schedule: Q04DX003 (ip), vehicle: saline with Tween-80.
The mark [5] stands for this setting: dose: 400.0 mg/kg/injection, schedule: Q01DX009 (ip), vehicle: saline with Tween-80.
Setting [6] is: dose: 400.0 mg/kg/injection, schedule: Q04DX003 (ip), vehicle: saline with Tween-80.
Setting [7] is: dose: 25.0 mg/kg/injection, schedule: Q01DX009 (ip), vehicle: saline.
Where [8] appears, read: dose: 25.0 mg/kg/injection, schedule: Q04DX003 (ip), vehicle: saline.
[9] abbreviates: dose: 100.0 mg/kg/injection, schedule: Q04DX003 (ip), vehicle: saline.
The mark [10] stands for this setting: dose: 100.0 mg/kg/injection, schedule: Q01DX001 (ip), vehicle: saline.
[11] abbreviates: dose: 200.0 mg/kg/injection, schedule: Q01DX001 (ip), vehicle: saline.
Setting [12] is: dose: 400.0 mg/kg/injection, schedule: Q01DX001 (ip), vehicle: saline.
[13] abbreviates: dose: 200.0 mg/kg/injection, schedule: Q04DX003 (ip), vehicle: saline.
Where [14] appears, read: dose: 400.0 mg/kg/injection, schedule: Q04DX003 (ip), vehicle: saline.

Inconclusive results and toxic doses are left out.

As to `CC[n+]1cccc2cc(NC(=O)c3ccc(NC(=O)c4ccc(C(=O)Nc5ccc6c(ccc[n+]6CC)c5)cc4)cc3)ccc21`, the T/C runs as follows: (dose: 0.5 mg/kg/injection, schedule: Q01DX Z (ip), vehicle: carboxymethylcellulose (CMC)) 94 % of control; (dose: 1.0 mg/kg/injection, schedule: Q01DX Z (ip), vehicle: carboxymethylcellulose (CMC)) 96 % of control; (dose: 2.5 mg/kg/injection, schedule: Q01DX Z (ip), vehicle: carboxymethylcellulose (CMC)) 120 % of control; (dose: 5.0 mg/kg/injection, schedule: Q01DX Z (ip), vehicle: carboxymethylcellulose (CMC)) 156 % of control; (dose: 8.9 mg/kg/injection, schedule: Q01DX Z (ip), vehicle: carboxymethylcellulose (CMC)) 154 % of control; (dose: 13.3 mg/kg/injection, schedule: Q01DX Z (ip), vehicle: carboxymethylcellulose (CMC)) 164 % of control. The T/C is 164 % of control (dose: 20.0 mg/kg/injection, schedule: Q01DX Z (ip), vehicle: carboxymethylcellulose (CMC)) and 174 % of control (dose: 30.0 mg/kg/injection, schedule: Q01DX Z (ip), vehicle: carboxymethylcellulose (CMC)).

`CCCNC(=O)Nc1cccc(Cl)c1C`: the T/C by setting is: under setting [1], 102 % of control; under setting [2], 101 % of control; under setting [3], 94 % of control; under setting [4], 94 % of control; under setting [5], 100 % of control; under setting [6], 100 % of control.

For `CCC(CC)NCC(C)(C)O`, the T/C is, setting by setting: (dose: 75.0 mg/kg/injection, schedule: Q01DX001 (ip), vehicle: acid diluted with saline) 115 % of control; (dose: 150.0 mg/kg/injection, schedule: Q01DX001 (ip), vehicle: acid diluted with saline) 110 % of control.

In the case of `CN(C)CCCCCCN(C)C` (tested in a mixture with another compound), the T/C is, setting by setting: (dose: 9.38 mg/kg/injection, schedule: Q01DX001 (ip), vehicle: saline) 102 % of control; (dose: 18.75 mg/kg/injection, schedule: Q01DX001 (ip), vehicle: saline) 95 % of control; (dose: 37.5 mg/kg/injection, schedule: Q01DX001 (ip), vehicle: saline) 93 % of control.

With `CS(=O)(=O)N(CC(=O)O)Cc1ccc(F)cc1`, the T/C by setting is: (dose: 100.0 mg/kg/injection, schedule: Q01DX009 (ip), vehicle: other) 103 % of control; (dose: 100.0 mg/kg/injection, schedule: Q04DX003 (ip), vehicle: other) 98 % of control; (dose: 200.0 mg/kg/injection, schedule: Q01DX009 (ip), vehicle: other) 102 % of control; (dose: 200.0 mg/kg/injection, schedule: Q04DX003 (ip), vehicle: other) 104 % of control; (dose: 400.0 mg/kg/injection, schedule: Q01DX009 (ip), vehicle: other) 97 % of control; (dose: 400.0 mg/kg/injection, schedule: Q04DX003 (ip), vehicle: other) 94 % of control.

Turning to `COc1cc(N2CCOCC2)ccc1N`, the T/C is 89 % of control under setting [7]; 100 % of control under setting [8]; 95 % of control (dose: 50.0 mg/kg/injection, schedule: Q01DX009 (ip), vehicle: saline); 101 % of control (dose: 50.0 mg/kg/injection, schedule: Q04DX003 (ip), vehicle: saline); 103 % of control under setting [9].

In the case of `CC1(C)OCC(C2OC(C)(C)OC2C(CO)Nc2ccc([N+](=O)[O-])cc2[N+](=O)[O-])O1` (centres undefined), the T/C was 98 % of control under setting [10], 93 % of control under setting [11] and 93 % of control under setting [12].

`[O-][n+]1c2ccccc2nc2ccccc21`: the T/C (dose: 100.0 mg/kg/injection, schedule: Q04DX003 (ip), vehicle: Klucel (hydroxypropylcellulose) (HPC)) was 98 % of control; the T/C (dose: 200.0 mg/kg/injection, schedule: Q04DX003 (ip), vehicle: Klucel (hydroxypropylcellulose) (HPC)) is 98 % of control; the T/C (dose: 400.0 mg/kg/injection, schedule: Q04DX003 (ip), vehicle: Klucel (hydroxypropylcellulose) (HPC)) was 89 % of control.

With `O=C(c1ccccc1)C1C(C(=O)c2ccccc2)C(c2ccccc2)N(c2ccccc2)C1c1ccccc1` (centres undefined), the T/C is 94 % of control (dose: 50.0 mg/kg/injection, schedule: Q01DX001 (ip), vehicle: saline); 94 % of control under setting [10]; 97 % of control under setting [11]; 105 % of control under setting [12].

In the case of `CC(=O)N(C)c1ccc(N)cc1`, the T/C was 104 % of control (dose: 100.0 mg/kg/injection, schedule: Q01DX009 (ip), vehicle: saline); 100 % of control under setting [9]; 98 % of control (dose: 200.0 mg/kg/injection, schedule: Q01DX009 (ip), vehicle: saline); 105 % of control under setting [13]; 93 % of control (dose: 400.0 mg/kg/injection, schedule: Q01DX009 (ip), vehicle: saline); 102 % of control under setting [14].

Take `CCOC(=O)CNC(=O)OCCN1CCNC1=S`: the T/C was 98 % of control under setting [1], 100 % of control under setting [3] and 101 % of control under setting [5].

For `CN(C)CCSS(=O)(=O)O`, the T/C is 93 % of control under setting [10], 96 % of control under setting [11] and 102 % of control under setting [12].

Consider `CN(C(=O)Oc1ccccc1)c1ccc(S(=O)(=O)F)cc1`, for which the T/C by setting is: (dose: 100.0 mg/kg/injection, schedule: Q01DX001 (ip), vehicle: saline with Tween-80) 104 % of control; (dose: 200.0 mg/kg/injection, schedule: Q01DX001 (ip), vehicle: saline with Tween-80) 96 % of control; (dose: 400.0 mg/kg/injection, schedule: Q01DX001 (ip), vehicle: saline with Tween-80) 98 % of control.

As to `CCc1c(Nc2ccccc2Cl)[nH]c(N)nc1=S`, the T/C (dose: 100.0 mg/kg/injection, schedule: Q01DX Z (ip), vehicle: methylcellulose (MC)) is 97 % of control and the T/C (dose: 200.0 mg/kg/injection, schedule: Q01DX Z (ip), vehicle: methylcellulose (MC)) is 97 % of control.

Turning to `O=[N+]([O-])c1cc[n+]([O-])c2sccc12`, the T/C was 100 % of control under setting [2], 109 % of control under setting [4] and 108 % of control under setting [6].

In the case of `CCOC(=O)CCC(NC(=O)C1CSC(C)(C)N1C=O)C(=O)OCC` (centres undefined), the T/C reads like this: under setting [9], 104 % of control; under setting [13], 93 % of control; under setting [14], 98 % of control.

Consider `CCOc1ccc(Br)cc1C=O`, for which the T/C was 97 % of control under setting [1]; 97 % of control under setting [2]; 91 % of control under setting [3]; 97 % of control under setting [4]; 91 % of control under setting [5]; 101 % of control under setting [6].

`O=C1CCC(N2C(=O)C3C4c5ccccc5C(c5ccccc54)C3C2=O)C(=O)N1` (centres undefined): the T/C under setting [2] is 97 % of control, the T/C under setting [9] is 97 % of control, the T/C under setting [4] is 93 % of control and the T/C under setting [13] was 89 % of control.

For `C/C(=C\Nc1cccnc1)C(=O)c1ccc(F)cc1`, the T/C under setting [1] was 102 % of control, the T/C under setting [3] is 102 % of control and the T/C under setting [5] is 98 % of control.

Turning to `O=C(Nc1ccc(CCC2=NCCN2)cc1)c1ccc(C(=O)Nc2ccc(CCC3=NCCN3)cc2)cc1`, the T/C is, setting by setting: (dose: 30.0 mg/kg/injection, schedule: Q01DX Z (oral), vehicle: saline) 101 % of control; (dose: 60.0 mg/kg/injection, schedule: Q01DX Z (oral), vehicle: saline) 103 % of control; (dose: 120.0 mg/kg/injection, schedule: Q01DX Z (oral), vehicle: saline) 106 % of control; (dose: 240.0 mg/kg/injection, schedule: Q01DX Z (oral), vehicle: saline) 97 % of control.

`COCn1cnc2c(F)ncnc21`: the T/C is 94 % of control (dose: 6.25 mg/kg/injection, schedule: Q01DX009 (ip), vehicle: saline); 101 % of control (dose: 6.25 mg/kg/injection, schedule: Q04DX003 (ip), vehicle: saline); 100 % of control (dose: 12.5 mg/kg/injection, schedule: Q01DX009 (ip), vehicle: saline); 104 % of control (dose: 12.5 mg/kg/injection, schedule: Q04DX003 (ip), vehicle: saline); 101 % of control under setting [7]; 102 % of control under setting [8].

Regarding `NC(=O)Nc1cccc(Cl)c1`, the T/C was 106 % of control (dose: 100.0 mg/kg/injection, schedule: Q04DX002 (ip), vehicle: gum acacia); 98 % of control (dose: 200.0 mg/kg/injection, schedule: Q04DX002 (ip), vehicle: gum acacia); 106 % of control (dose: 400.0 mg/kg/injection, schedule: Q04DX002 (ip), vehicle: gum acacia).
